Laboratory results published in PubChem BioAssay (NCI).
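Tested at 5 concentrations; 48 h exposure; 96-well plates; endpoints linearly interpolated, else capped at highest concentration. At the GI50, growth is halved. TGI: total growth inhibition.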

Experiments:
Test in all cases: inhibition of tumour cell growth, NCI panel, 48 h
MALME-3M melanoma = tested on: MALME-3M melanoma
SF-295 CNS = tested on: SF-295 CNS
SR leukemia = tested on: SR leukemia
HL-60(TB) leukemia = tested on: HL-60(TB) leukemia
COLO 205 colon = tested on: COLO 205 colon
U251 CNS = tested on: U251 CNS
ACHN renal = tested on: ACHN renal
NCI/ADR-RES ovarian = tested on: NCI/ADR-RES ovarian
T-47D breast = tested on: T-47D breast
K-562 leukemia = tested on: K-562 leukemia
KM12 colon = tested on: KM12 colon
SK-OV-3 ovarian = tested on: SK-OV-3 ovarian
RXF 393 renal = tested on: RXF 393 renal
SK-MEL-5 melanoma = tested on: SK-MEL-5 melanoma
RPMI-8226 leukemia = tested on: RPMI-8226 leukemia
MDA-MB-435 = tested on: MDA-MB-435
CAKI-1 renal = tested on: CAKI-1 renal
UACC-62 melanoma = tested on: UACC-62 melanoma
SW-620 colon = tested on: SW-620 colon
NCI-H23 lung = tested on: NCI-H23 lung
NCI-H460 lung = tested on: NCI-H460 lung
OVCAR-5 ovarian = tested on: OVCAR-5 ovarian
OVCAR-3 ovarian = tested on: OVCAR-3 ovarian
SF-539 CNS = tested on: SF-539 CNS
OVCAR-8 ovarian = tested on: OVCAR-8 ovarian
HCT-116 colon = tested on: HCT-116 colon
MOLT-4 leukemia = tested on: MOLT-4 leukemia
SN12C renal = tested on: SN12C renal
TK-10 renal = tested on: TK-10 renal
A549 NSCLC = tested on: A549 NSCLC
HOP-92 NSCLC = tested on: HOP-92 NSCLC
HT29 colon = tested on: HT29 colon
MDA-MB-231 breast = tested on: MDA-MB-231 breast
NCI-H522 lung = tested on: NCI-H522 lung
HCT-15 colon = tested on: HCT-15 colon
SK-MEL-2 melanoma = tested on: SK-MEL-2 melanoma
A498 renal = tested on: A498 renal
EKVX NSCLC = tested on: EKVX NSCLC
UO-31 renal = tested on: UO-31 renal
SK-MEL-28 melanoma = tested on: SK-MEL-28 melanoma
IGROV1 ovarian = tested on: IGROV1 ovarian
BT-549 breast = tested on: BT-549 breast
DU-145 prostate = tested on: DU-145 prostate
NCI-H226 lung = tested on: NCI-H226 lung
M14 melanoma = tested on: M14 melanoma
SF-268 CNS = tested on: SF-268 CNS
SNB-75 CNS = tested on: SNB-75 CNS
LOX IMVI melanoma = tested on: LOX IMVI melanoma
786-0 renal = tested on: 786-0 renal
PC-3 prostate = tested on: PC-3 prostate
HOP-62 NSCLC = tested on: HOP-62 NSCLC
OVCAR-4 ovarian = tested on: OVCAR-4 ovarian
CCRF-CEM leukemia = tested on: CCRF-CEM leukemia
MCF7 breast = tested on: MCF7 breast
HS 578T breast = tested on: HS 578T breast
HCC-2998 colon = tested on: HCC-2998 colon
SNB-19 CNS = tested on: SNB-19 CNS
UACC-257 melanoma = tested on: UACC-257 melanoma

## COc1ccc([C@H]2[C@H](O)C(=O)N2c2cc(OC)c(OC)c(OC)c2)cc1F
MALME-3M melanoma
  GI50: < 10 nM
  TGI: > 100000 nM
SF-295 CNS
  GI50: < 10 nM
  TGI: > 100000 nM
SR leukemia
  GI50: < 10 nM
  TGI: > 100000 nM
HL-60(TB) leukemia
  GI50: < 10 nM
COLO 205 colon
  GI50: < 10 nM
  TGI: < 10 nM
U251 CNS
  GI50: < 10 nM
  TGI: > 100000 nM
ACHN renal
  GI50: < 10 nM
  TGI: > 100000 nM
NCI/ADR-RES ovarian
  GI50: < 10 nM
T-47D breast
  GI50: > 100000 nM
  TGI: > 100000 nM
K-562 leukemia
  GI50: < 10 nM
  TGI: > 100000 nM
KM12 colon
  GI50: < 10 nM
  TGI: > 100000 nM
SK-OV-3 ovarian
  GI50: < 10 nM
  TGI: > 100000 nM
RXF 393 renal
  GI50: < 10 nM
SK-MEL-5 melanoma
  GI50: < 10 nM
  TGI: 12 nM
RPMI-8226 leukemia
  GI50: < 10 nM
  TGI: > 34500 nM
MDA-MB-435
  GI50: < 10 nM
  TGI: < 10 nM
CAKI-1 renal
  GI50: < 10 nM
  TGI: > 100000 nM
UACC-62 melanoma
  GI50: < 10 nM
  TGI: > 100000 nM
SW-620 colon
  GI50: < 10 nM
  TGI: > 100000 nM
NCI-H23 lung
  GI50: < 10 nM
  TGI: > 100000 nM
NCI-H460 lung
  GI50: < 10 nM
  TGI: > 39100 nM
OVCAR-5 ovarian
  GI50: < 10 nM
  TGI: > 100000 nM
OVCAR-3 ovarian
  GI50: < 10 nM
  TGI: > 100000 nM
SF-539 CNS
  GI50: < 10 nM
  TGI: < 10 nM
OVCAR-8 ovarian
  GI50: < 10 nM
HCT-116 colon
  GI50: < 10 nM
  TGI: > 100000 nM
MOLT-4 leukemia
  GI50: < 10 nM
  TGI: > 100000 nM
SN12C renal
  GI50: < 10 nM
  TGI: > 100000 nM
TK-10 renal
  GI50: > 100000 nM
  TGI: > 100000 nM
A549 NSCLC
  GI50: < 10 nM
  TGI: > 100000 nM
HOP-92 NSCLC
  TGI: > 100000 nM
HT29 colon
  GI50: < 10 nM
  TGI: < 10 nM
MDA-MB-231 breast
  GI50: < 10 nM
  TGI: > 100000 nM
NCI-H522 lung
  GI50: < 10 nM
  TGI: < 10 nM
HCT-15 colon
  GI50: < 10 nM
  TGI: > 100000 nM
SK-MEL-2 melanoma
  GI50: < 10 nM
  TGI: > 94800 nM
A498 renal
  GI50: > 100000 nM
  TGI: > 100000 nM
EKVX NSCLC
  TGI: > 100000 nM
UO-31 renal
  GI50: < 10 nM
  TGI: > 100000 nM
SK-MEL-28 melanoma
  GI50: < 10 nM
  TGI: > 100000 nM
IGROV1 ovarian
  GI50: < 10 nM
  TGI: > 100000 nM
BT-549 breast
  GI50: < 10 nM
DU-145 prostate
  GI50: < 10 nM
  TGI: > 100000 nM
NCI-H226 lung
  GI50: < 10 nM
M14 melanoma
  GI50: < 10 nM
  TGI: > 100000 nM
SF-268 CNS
  GI50: < 10 nM
  TGI: > 100000 nM
SNB-75 CNS
  GI50: < 10 nM
LOX IMVI melanoma
  GI50: < 10 nM
  TGI: > 100000 nM
786-0 renal
  GI50: < 10 nM
  TGI: > 100000 nM
PC-3 prostate
  GI50: < 10 nM
  TGI: > 100000 nM
HOP-62 NSCLC
  GI50: < 10 nM
  TGI: > 100000 nM
OVCAR-4 ovarian
  GI50: 546 nM
  TGI: > 100000 nM
CCRF-CEM leukemia
  GI50: < 10 nM
  TGI: > 100000 nM
MCF7 breast
  GI50: < 10 nM
  TGI: > 100000 nM
HS 578T breast
  GI50: < 10 nM
  TGI: > 100000 nM
HCC-2998 colon
  GI50: < 10 nM
SNB-19 CNS
  GI50: < 10 nM
  TGI: > 100000 nM
UACC-257 melanoma
  TGI: > 100000 nM
